Measured values published in PubChem BioAssay (NCI).
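48-hour exposure; five concentrations; linearly interpolated endpoints. The concentration for 50% growth inhibition is given as GI50. TGI is the concentration that stops growth completely.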

Columns and labels:
Assay in all cases: NCI tumour cell line growth inhibition, 48 h
[1] = system: MDA-MB-231 breast
[2] = system: NCI-H460 lung
[3] = system: PC-3 prostate
[4] = system: HS 578T breast
[5] = system: MDA-MB-435
[6] = system: DU-145 prostate
[7] = system: A498 renal
[8] = system: A549 NSCLC
[9] = system: HCT-15 colon
[10] = system: SNB-75 CNS

SMILES | TGI [1] | TGI [2] | TGI [3] | TGI [4] | TGI [5] | TGI [6] | TGI [7] | TGI [8] | TGI [9] | TGI [10] | GI50 [1] | GI50 [2] | GI50 [3] | GI50 [4] | GI50 [5] | GI50 [6] | GI50 [7] | GI50 [8] | GI50 [9] | GI50 [10]
CCCCn1c2c(n(CCCC)c1=S)-c1c(n(CCCC)c(=S)n1CCCC)S[Se][Se]S2 | 7.59 µM | > 80 µM | > 34.2 µM | 44.2 µM | 39.1 µM | > 60.4 µM | > 100 µM | > 88.7 µM | 15.9 µM | 31.5 µM |  |  |  |  |  |  |  |  |  | 
O=C(O)[C@@H]1C[C@@H](O)CN1C(=O)OCc1ccccc1 | > 100 µM | > 100 µM | > 100 µM | > 100 µM | > 100 µM | > 100 µM | > 100 µM | > 100 µM | > 100 µM | > 100 µM |  |  |  |  |  |  |  |  |  | 
CN(C)NC(=S)Nc1ccccc1Br | > 100 µM | > 100 µM | > 100 µM | > 100 µM | > 100 µM | > 100 µM | > 100 µM | > 100 µM | > 100 µM | > 100 µM |  |  |  |  |  |  |  |  |  | 
COC(=O)NN(C(=O)OC)c1c(-c2ccccc2)nc(SC)n1N | > 100 µM | > 100 µM | > 100 µM | > 100 µM | > 100 µM | > 100 µM | > 100 µM | > 100 µM | > 100 µM | > 100 µM |  |  |  |  |  |  |  |  |  | 
COc1ccc2c(c1)O/C(=C\c1cccc(OCC(=O)Nc3nc4c(s3)CCCC4)c1)C2=O | > 53.9 µM | > 100 µM | > 60.1 µM | > 100 µM | > 100 µM | 19.7 µM | > 100 µM | > 100 µM | > 100 µM | 54.9 µM | 6.58 µM | > 100 µM | 12.7 µM | 35.1 µM | > 43.3 µM | 5.01 µM | > 42.5 µM | 29 µM | 18.1 µM | 11.5 µM
O=C1/C(=C/c2ccccc2S)N=C(c2ccccc2)N1c1nc2ccc(Sc3ccccc3)cc2[nH]1 | 71.6 µM | 57 µM | > 100 µM | 72.6 µM | 29.7 µM | > 100 µM | > 100 µM | > 100 µM | > 100 µM | 93.5 µM |  |  |  |  |  |  |  |  |  | 
Cc1nn(C(=O)Cc2ccccc2)c2c1C(c1ccccc1O)SC(N)=N2 (stereo not given) | > 100 µM | > 100 µM | > 100 µM | > 100 µM | > 100 µM | > 100 µM | > 100 µM | > 100 µM | > 100 µM | > 100 µM |  |  |  |  |  |  |  |  |  | 
Cc1ccccc1OC(C)C(=O)NN1C(=O)CC(=O)N(c2ccc(Cl)cc2)C1=S (stereo not given) | > 100 µM | > 100 µM | > 100 µM | > 100 µM | > 100 µM | > 100 µM | 64.6 µM | > 100 µM | > 100 µM | > 100 µM |  |  |  |  |  |  |  |  |  | 
CC(C)(C)NC(=O)[C@H]1CC[C@H]2[C@@H]3CC=C4NC(=O)CC[C@]4(C)[C@H]3CC[C@]12C | > 100 µM | > 100 µM | > 100 µM | > 100 µM | > 100 µM | > 100 µM | > 100 µM | > 100 µM | > 100 µM | 99 µM |  |  |  |  |  |  |  |  |  | 
Nc1nn2c(C(Br)Br)cc(C(Br)Br)nc2c1[N+](=O)[O-] | 2.95 µM | 7.5 µM | 2.73 µM | 6.28 µM | 1.76 µM | 3.46 µM | 4.72 µM | 20.1 µM | 2.34 µM | 2.29 µM |  |  |  |  |  |  |  |  |  | 
CCCCN1CCN(c2ccc3nc(-c4ccc5nc(-c6ccc(C(F)(F)F)cc6)[nH]c5c4)[nH]c3c2)CC1 | 2.94 µM | 1.33 µM | 2.31 µM | 3.73 µM | 3.01 µM | 2.36 µM | 3.45 µM | 2.24 µM | 1.1 µM | 2.34 µM | 1.47 µM | 0.64 µM | 0.962 µM | 1.82 µM | 1.59 µM | 0.915 µM | 1.78 µM | 0.926 µM | 0.303 µM | 1.11 µM
COC(=O)c1ccccc1/C=C1/Cc2ccccc2C1=O | > 100 µM | > 100 µM | > 100 µM | 97.3 µM | > 100 µM | > 100 µM | > 100 µM | > 100 µM | 58.6 µM | > 100 µM |  |  |  |  |  |  |  |  |  | 
